Patent publication US20120122854A1, “Carbocyclic Fused Cyclic Amines” (priority 2005, published 2012)

Biological target: T1, human factor Xa (Homo sapiens, UniProt P00742)
T1 construct: purchased Enzyme Research Laboratories
Experiment: Factor Xa chromogenic peptide substrate (S-2222) assay
Format: biochemical
Details: human factor Xa 3 nM, chromogenic substrate S-2222, pH 7.8, room temperature; apparent Ki from IC50 by Cheng-Prusoff
Description: Factor Xa activity was measured spectrophotometrically in microtiter plates in a final volume of 150 μl using the following conditions: Inhibition of human factor Xa (Enzyme Research Laboratories) was tested at an enzyme concentration of 3 nM using the chromogenic substrate S-2222 (Chromogenix AB, Mölndal, Sweden) at […]. The reaction kinetics of the enzyme and the substrate were linear with both time and the enzyme concentration. The inhibitors were dissolved in DMSO and tested at various concentrations up to 100 μM. The inhibitors were diluted using HNPT buffer consisting of HEPES100 mM, NaCl 140 mM, PEG 6000 0.1% and Tween 80 0.02%, pH 7.8. The cleavage of S-2222 by human factor Xa was followed at 405 nm for 5 minutes at room temperature. The velocity of the reaction was determined by the autoreader from the slope of the linear regression fit to 7 time points (1 minute). The initial velocity for each inhibitor concentration was determined by the slope of at least 4 time points in the linear phase by a linear regression fit […]. Apparent dissociation constants Ki were calculated according to Cheng and Prusoff [Cheng, Y. C.; Prusoff, W. H. Relationship between the inhibition constant (Ki) and the concentration of the inhibitor that causes 50 percent inhibition (IC50) of an enzyme reaction. Biochem. Pharmacol. 1973, 22, 3099-3108.] based on the IC50 and the respective Km, determined previously (Ki=IC50/(1+S/Km)). The Km for the substrate used was determined under the conditions of the test with at least 5 substrate concentrations ranging from 0.5 to 15 times Km. [Lottenberg R, Hall J A, Blinder M, Binder E P, Jackson C M., The action of thrombin on peptide p-nitroanilide substrates. Substrate selectivity and examination of hydrolysis under different reaction conditions. Biochim Biophys Acta. 1983 Feb. 15; 742(3):539-57]. According to Eadie [Eadie G. S. The inhibition of cholinesterase by physostigmine and prostigmine. J. Biol. Chem. 1942, 146, 85-93.], the Km for S-2222 amounted to 613 μM.

T1 sequence (P00742 235-488 limits assumed): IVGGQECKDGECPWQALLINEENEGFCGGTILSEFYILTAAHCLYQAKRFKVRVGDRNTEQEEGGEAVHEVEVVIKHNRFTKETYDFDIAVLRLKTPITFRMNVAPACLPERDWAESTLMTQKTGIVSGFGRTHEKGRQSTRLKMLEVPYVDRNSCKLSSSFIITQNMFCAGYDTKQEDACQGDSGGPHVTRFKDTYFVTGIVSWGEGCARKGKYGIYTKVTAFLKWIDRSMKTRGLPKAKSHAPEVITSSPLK
T1 sequence (P00742 41-179 partner limits assumed): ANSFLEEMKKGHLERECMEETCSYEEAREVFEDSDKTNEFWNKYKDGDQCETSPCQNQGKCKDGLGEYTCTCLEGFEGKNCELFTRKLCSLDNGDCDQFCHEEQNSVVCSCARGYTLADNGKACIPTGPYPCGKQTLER

Compound	Ki
O=C(Nc1ccc(-n2ccccc2=O)cc1)C1c2ccccc2CN1C(=O)Nc1ccc(Cl)cc1 (stereo in doubt) [Example 4, (S)-1,3-Dihydro-isoindole-1,2-dicarboxylic acid 2-[(4-chloro-phenyl)-amide]1-{[4-(2-oxo-2H-pyridin-1-yl)-phenyl]-amide}]	2 nM
O=C(Nc1ccc(-n2ccccc2=O)cc1F)[C@H]1Cc2ccccc2CN1C(=O)Nc1ccc(Cl)cc1 [Example 25, (R)-3,4-Dihydro-1H-isoquinoline-2,3-dicarboxylic acid 2-[(4-chloro-phenyl)-amide]3-{[2-fluoro-4-(2-oxo-2H-pyridin-1-yl)-phenyl]-amide}]	2 nM
O=C(NCC1CN(C(=O)Nc2ccc(-n3ccccc3=O)cc2F)c2cccc(Cl)c21)c1ccc(Cl)s1 (stereo not drawn) [Example 44, 4-Chloro-3-{[(5-chloro-thiophene-2-carbonyl)-amino]-methyl}-2,3-dihydro-indole-1-carboxylic acid [2-fluoro-4-(2-oxo-2H-pyridin-1-yl)-phenyl]-amide]	2 nM
